Test results published in US10517889B2, “Modulators of SMAD7 expression” (Ionis Pharmaceuticals, Inc., priority 2017, dated 2019).
Strand notation (5' to 3'): a small letter for the sugar, then the base; units joined by * are phosphorothioate-linked, units joined directly phosphodiester-linked; [ ] holds rarer units or linkages, { } end groups; capitals alone tell only the bases. k = constrained ethyl (cEt); [5mC] = 5-methylcytosine; d = 2'-deoxy (DNA)

tested on: human SMAD7 mRNA; test: Antisense inhibition of human SMAD7 mRNA expression in Hep3B cells by 3-10-3 cEt gapmers, 10,000 nM, electroporation (Example 2); type: cell-based; conditions: Hep3B cells, 10,000 nM antisense oligonucleotide, electroporation, approximately 24 hours, RT-PCR primer probe set RTS5062, relative to untreated control cells
Method in brief: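 qRT-PCR (RTS5062) of SMAD7 mRNA, normalised to RIBOGREEN total RNA, gave percent inhibition relative to untreated controls. Hep3B cells at 20,000 per well received 10,000 nM oligonucleotide by electroporation, with ~24 h treatment.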

Row | Substance | % Inhibition [%]
1 | 799950 (antisense kG*k[5mC]*kA*d[5mC]*dA*dA*dG*dT*d[5mC]*dA*d[5mC]*dT*dG*kG*k[5mC]*k[5mC]) [compound 799950] | 0
2 | 799951 (antisense kT*k[5mC]*kT*dT*dA*dA*dA*dA*dA*dA*dA*dG*dG*kG*kA*kG) [compound 799951] | 0
3 | 799952 (antisense k[5mC]*kT*k[5mC]*dT*dA*dA*dG*dT*dG*dG*d[5mC]*dT*d[5mC]*kA*kT*kG) [compound 799952] | 30
4 | 799953 (antisense kA*kG*kA*dA*dA*dA*dT*dG*d[5mC]*d[5mC]*d[5mC]*dA*d[5mC]*k[5mC]*kA*kG) [compound 799953] | 0
5 | 799954 (antisense k[5mC]*kA*kG*dA*dA*dA*dA*dT*dG*d[5mC]*d[5mC]*d[5mC]*dA*k[5mC]*k[5mC]*kA) [compound 799954] | 42
6 | 799955 (antisense k[5mC]*kG*k[5mC]*dT*d[5mC]*dA*dG*dA*dA*dA*dA*dT*dG*k[5mC]*k[5mC]*k[5mC]) [compound 799955] | 50
7 | 799956 (antisense kT*k[5mC]*kT*d[5mC]*d[5mC]*dA*dG*d[5mC]*d[5mC]*dG*d[5mC]*dT*d[5mC]*kA*kG*kA) [compound 799956] | 57
8 | 799957 (antisense kT*k[5mC]*kT*dG*dA*dG*dG*d[5mC]*dT*d[5mC]*d[5mC]*dT*dG*kG*kG*kT) [compound 799957] | 11
9 | 799958 (antisense kG*kT*kG*dG*dA*dG*dA*dG*dT*dG*d[5mC]*dT*dG*k[5mC]*kA*k[5mC]) [compound 799958] | 23
10 | 799959 (antisense kA*kG*k[5mC]*dT*dT*dG*dT*dG*dG*dA*dG*dA*dG*kT*kG*k[5mC]) [compound 799959] | 1
11 | 799970 (kT*k[5mC]*k[5mC]*dT*d[5mC]*dA*dG*dG*dA*dA*dA*d[5mC]*dA*k[5mC]*kA*kG; antisense) [compound 799970] | 43
12 | 799971 (kG*kT*kA*dA*dA*dA*d[5mC]*dT*dT*dG*d[5mC]*dT*dG*kA*kG*kA; antisense) [compound 799971] | 31
13 | 799972 (k[5mC]*kA*k[5mC]*dA*dA*dG*dG*dA*d[5mC]*d[5mC]*d[5mC]*dT*dT*kG*k[5mC]*kT; antisense) [compound 799972] | 0
14 | 799973 (kA*kT*kA*dA*dT*dT*d[5mC]*dA*d[5mC]*dA*dA*dG*dG*kA*k[5mC]*k[5mC]; antisense) [compound 799973] | 0
15 | 799974 (kG*kA*k[5mC]*dT*d[5mC]*d[5mC]*dA*dG*dT*dG*d[5mC]*d[5mC]*dA*kA*kT*k[5mC]; antisense) [compound 799974] | 23
16 | 799975 (kT*k[5mC]*kT*dT*d[5mC]*dA*dG*dG*dG*dA*d[5mC]*dA*dA*kG*k[5mC]*k[5mC]; antisense) [compound 799975] | 38
17 | 799976 (kT*k[5mC]*kA*dA*dA*dG*dG*dT*dT*dA*dA*d[5mC]*dA*kG*k[5mC]*kA; antisense) [compound 799976] | 34
18 | 799977 (kG*kG*kA*d[5mC]*dA*dT*d[5mC]*dT*d[5mC]*dA*dA*dA*dG*kG*kT*kT; antisense) [compound 799977] | 36
19 | 799978 (k[5mC]*kT*k[5mC]*d[5mC]*dA*d[5mC]*dA*dA*d[5mC]*dG*dG*dA*d[5mC]*kA*kT*k[5mC]; antisense) [compound 799978] | 24
20 | 799979 (kA*kA*k[5mC]*dG*dG*dT*dT*dG*d[5mC]*d[5mC]*dT*d[5mC]*dA*kT*k[5mC]*k[5mC]; antisense) [compound 799979] | 38
21 | 799990 (kT*kT*kG*d[5mC]*dA*d[5mC]*d[5mC]*dT*dG*dG*d[5mC]*dA*dA*k[5mC]*k[5mC]*kT; antisense) [compound 799990] | 0
22 | 799991 (kG*kG*k[5mC]*d[5mC]*dG*d[5mC]*d[5mC]*dT*d[5mC]*d[5mC]*dT*dG*d[5mC]*kA*kG*kG; antisense) [compound 799991] | 19
23 | 799992 (kG*kG*k[5mC]*dA*d[5mC]*dG*dG*d[5mC]*d[5mC]*dG*d[5mC]*d[5mC]*dT*k[5mC]*k[5mC]*kT; antisense) [compound 799992] | 9
24 | 799993 (kA*kT*kA*dA*dT*dG*dA*dA*dG*dT*dG*dA*dT*kA*kT*kT; antisense) [compound 799993] | 0
25 | 799994 (kA*k[5mC]*kT*dT*dG*dG*dA*dT*dA*dA*dT*dG*dA*kA*kG*kT; antisense) [compound 799994] | 2

same assay, conditions: Hep3B cells, electroporation with 10,000 nM antisense oligonucleotide, approximately 24 hours, SMAD7 mRNA by RT-PCR (RTS5062), relative to untreated control cells

Row | Substance | % Inhibition [%]
26 | 799940 (antisense k[5mC]*kT*kT*dT*dG*dA*dG*dG*dA*dG*d[5mC]*dA*dG*kG*kG*kT) [compound 799940] | 50
27 | 799941 (antisense kT*kT*kT*dA*d[5mC]*dT*dA*d[5mC]*d[5mC]*dT*dT*d[5mC]*d[5mC]*kA*kG*kA) [compound 799941] | 44
28 | 799942 (antisense kA*kA*k[5mC]*dA*d[5mC]*dT*dG*dG*dT*dT*d[5mC]*d[5mC]*dA*kT*kT*kT) [compound 799942] | 0
29 | 799943 (antisense kT*kG*k[5mC]*d[5mC]*d[5mC]*dT*d[5mC]*dT*d[5mC]*dA*dG*dG*dG*kT*k[5mC]*kT) [compound 799943] | 0
30 | 799944 (antisense k[5mC]*kT*kG*d[5mC]*dA*dG*d[5mC]*dA*dA*dG*dA*dA*dG*kT*kG*kG) [compound 799944] | 5
31 | 799945 (antisense kA*kG*k[5mC]*dT*dT*dT*dT*dA*dG*dA*dG*d[5mC]*dT*kG*k[5mC]*kG) [compound 799945] | 5
32 | 799946 (antisense kT*k[5mC]*kA*dG*dA*dA*d[5mC]*dA*d[5mC]*dA*d[5mC]*dT*dT*kT*kG*kG) [compound 799946] | 2
33 | 799947 (antisense kT*k[5mC]*kT*dA*dA*dA*dG*d[5mC]*d[5mC]*dA*d[5mC]*d[5mC]*dA*kA*kG*k[5mC]) [compound 799947] | 28
34 | 799948 (antisense kA*kT*kA*dT*dT*dG*d[5mC]*d[5mC]*dT*dG*dG*dT*dG*kT*kG*kA) [compound 799948] | 48
35 | 799949 (antisense kA*k[5mC]*kT*dG*dG*d[5mC]*d[5mC]*dG*dA*dA*dG*dT*dG*k[5mC]*kA*kG) [compound 799949] | 10
36 | 799960 (antisense kA*kA*kA*d[5mC]*dA*dG*dG*dG*dT*dT*d[5mC]*d[5mC]*d[5mC]*k[5mC]*k[5mC]*kA) [compound 799960] | 8
37 | 799961 (antisense k[5mC]*k[5mC]*kT*dA*dA*dA*dA*d[5mC]*dA*dG*dG*dG*dT*kT*k[5mC]*k[5mC]) [compound 799961] | 20
38 | 799962 (antisense k[5mC]*k[5mC]*kA*dA*d[5mC]*d[5mC]*d[5mC]*d[5mC]*dA*dG*dA*dG*dG*kT*kG*kA) [compound 799962] | 0
39 | 799963 (antisense kA*kG*k[5mC]*d[5mC]*dA*dT*dG*dG*d[5mC]*dA*dG*dA*dA*k[5mC]*k[5mC]*k[5mC]) [compound 799963] | 6
40 | 799965 (antisense k[5mC]*kT*k[5mC]*d[5mC]*dA*dG*dT*dG*dA*dA*dG*dT*dG*kA*kG*kA) [compound 799965] | 0
41 | 799966 (antisense kG*kT*kG*dG*dA*dA*dG*dG*d[5mC]*dT*dG*dA*d[5mC]*k[5mC]*kT*kG) [compound 799966] | 35
42 | 799968 (k[5mC]*kT*kG*d[5mC]*dG*dA*dG*dT*dT*dA*dA*dT*d[5mC]*kA*kG*kA; antisense) [compound 799968] | 27
43 | 799969 (kT*kT*kA*dG*dA*dG*dT*dG*dA*dG*dT*dT*d[5mC]*k[5mC]*kT*k[5mC]; antisense) [compound 799969] | 46
44 | 799981 (kA*k[5mC]*k[5mC]*dA*dA*d[5mC]*dG*dG*dT*dT*dG*d[5mC]*d[5mC]*kT*k[5mC]*kA; antisense) [compound 799981] | 14
45 | 799982 (k[5mC]*kA*k[5mC]*d[5mC]*dA*d[5mC]*dG*d[5mC]*d[5mC]*dT*d[5mC]*dG*d[5mC]*kT*kA*kA; antisense) [compound 799982] | 0
46 | 799983 (k[5mC]*kA*kT*d[5mC]*dA*d[5mC]*d[5mC]*dA*d[5mC]*dG*d[5mC]*d[5mC]*dT*k[5mC]*kG*k[5mC]; antisense) [compound 799983] | 15
47 | 799984 (kA*k[5mC]*kA*dT*d[5mC]*dA*d[5mC]*d[5mC]*dA*d[5mC]*dG*d[5mC]*d[5mC]*kT*k[5mC]*kG; antisense) [compound 799984] | 61
48 | 799985 (kA*kA*k[5mC]*dA*dT*d[5mC]*dA*d[5mC]*d[5mC]*dA*d[5mC]*dG*d[5mC]*k[5mC]*kT*k[5mC]; antisense) [compound 799985] | 53
49 | 799986 (kA*kA*kA*d[5mC]*dA*dT*d[5mC]*dA*d[5mC]*d[5mC]*dA*d[5mC]*dG*k[5mC]*k[5mC]*kT; antisense) [compound 799986] | 44
50 | 799987 (k[5mC]*kA*kA*dA*d[5mC]*dA*dT*d[5mC]*dA*d[5mC]*d[5mC]*dA*d[5mC]*kG*k[5mC]*k[5mC]; antisense) [compound 799987] | 57
51 | 799988 (kG*k[5mC]*kG*d[5mC]*dA*dA*dA*d[5mC]*dA*dT*d[5mC]*dA*d[5mC]*k[5mC]*kA*k[5mC]; antisense) [compound 799988] | 32
52 | 799989 (kT*kG*k[5mC]*dA*d[5mC]*d[5mC]*dT*dG*dG*d[5mC]*dA*dA*d[5mC]*k[5mC]*kT*kG; antisense) [compound 799989] | 57
